# Experimental data from PubChem BioAssay AID1645865 (Buhrlage Lab, Dana-Farber Cancer Institute and Novartis …, 2021).
# pIC50: −log10 of the molar value. Activity calls are given as the source filed them.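 Rule for the calls: active = maximal inhibition of the USP30 enzyme reaching 30% or more across the dose series; inactive = the rest.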
# Biological target: Ubiquitin carboxyl-terminal hydrolase 30 (Homo sapiens) (UniProt Q70CQ3)
# Experiment: inhibitors of ubiquitin-specific protease 30 deubiquitylating enzyme, concentration dependence, in vitro biochemical, validation of primary hits (AID 1645865)
# Conditions: purified USP30, Ub-rhodamine cleavage, fluorescence, 2 h
# Ubiquitin carboxyl-terminal hydrolase 30 (Homo sapiens), sequence (Q70CQ3 whole entry, looked up): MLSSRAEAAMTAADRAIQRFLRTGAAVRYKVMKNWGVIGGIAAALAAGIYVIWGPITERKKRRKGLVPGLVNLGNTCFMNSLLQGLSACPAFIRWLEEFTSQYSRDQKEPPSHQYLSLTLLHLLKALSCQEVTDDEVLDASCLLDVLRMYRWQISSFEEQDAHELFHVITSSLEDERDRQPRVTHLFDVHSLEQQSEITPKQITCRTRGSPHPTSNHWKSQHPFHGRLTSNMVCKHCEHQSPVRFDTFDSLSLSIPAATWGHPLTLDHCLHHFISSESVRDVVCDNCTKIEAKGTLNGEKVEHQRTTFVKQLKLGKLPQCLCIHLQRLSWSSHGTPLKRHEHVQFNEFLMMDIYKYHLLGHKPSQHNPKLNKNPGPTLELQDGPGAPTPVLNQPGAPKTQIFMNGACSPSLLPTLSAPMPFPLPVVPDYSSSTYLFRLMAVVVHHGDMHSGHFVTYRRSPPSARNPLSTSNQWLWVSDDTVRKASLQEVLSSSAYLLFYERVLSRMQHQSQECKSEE
IC50,pIC50,Compound
> 50 µM (inactive),–,c1coc(CNc2nc3ccccc3n3nnnc23)c1
–,5.13,Cc1cc(C)cc(-n2ccnc(SCC(=O)Nc3cccc(Cl)c3)c2=O)c1
–,5.65,CCCCN1CC(C(=O)Nc2ccc(C(=O)Nc3ccc(Cl)cc3)cc2)CC1=O (centres undefined)
–,6.74,CC1(O)CC(=O)c2c(cc3cc(O)cc(O)c3c2O)C1 (centres undefined)
> 50 µM (inactive),–,CCCn1c(=O)n(CC(=O)c2ccccc2F)c2c(C(N)=O)nc(-c3ccco3)nc21
–,5.36,CCc1ccc(NC(=O)COC(=O)c2n[nH]c3ccccc23)cc1
> 50 µM (inactive),–,COc1ncccc1CN1CCn2c(Cn3cncn3)cnc2C1C (centres undefined)
–,4.74,O=C(Oc1ccc(-c2cnc3ccccc3n2)cc1)c1ccc(F)cc1
> 50 µM (inactive),–,CC(C)N1CC[C@@H]2[C@H](C1)CN2C(=O)Nc1cccc(F)c1
–,4.51,O=c1c2ccccc2ncn1C1CCN(S(=O)(=O)c2ccccc2F)CC1
–,4.54,O=C(Nc1ccc(F)cc1F)NC1Cc2ccccc2C1
–,4.59,CCOc1ccc(C(=O)Cn2c(=O)n(CC3CCCO3)c(=O)c3cc(OC)c(OC)cc32)cc1Cl (centres undefined)
–,4.68,O=C(CSc1ncnc2c1oc1ccccc12)NC1CCCC1
> 50 µM (inactive),–,CNC(=O)CC1NC(=O)c2csc(n2)-c2ccc(-c3nc(C4=NC(C(=O)N5CCCC5C(N)=O)CO4)cs3)nc2-c2csc(n2)-c2csc(n2)C(C(O)c2ccccc2)NC(=O)CNC(=O)c2nc(sc2COC)C(C(C)C)NC(=O)c2nc1sc2C (centres undefined)
–,5.41,N#Cc1ccc(-c2ccc(OCC(=O)Nc3ccc4c(c3)OCO4)cc2)cc1
> 50 µM (inactive),–,O=C(c1ccco1)N1CCC2(CC1)CC1(CO2)Nc2ccccc2-n2cccc21 (centres undefined)
–,5.58,O=C(CC(C(=O)Nc1ccc2c(c1)OCO2)C(=O)c1ccccc1)Nc1ccc(Cl)cc1F (centres undefined)
> 50 µM (inactive),–,CC(C)c1ccc(NC(=O)c2cc3ncc(Br)cn3n2)cc1
> 50 µM (inactive),–,Cc1ccc(CNC(=O)c2cnc3ccccc3n2)cc1
–,4.67,CC1CCCN(S(=O)(=O)c2cc3cc(F)ccc3oc2=O)C1 (centres undefined)
> 50 µM (inactive),–,CC(C)(C)C(=O)Nc1ccc(SCc2nnc(-c3ccccc3)o2)cc1
> 50 µM (inactive),–,CC1OC2CC(O)C1(O)C1=C2C(O)=C(C(N)=O)C(=N)C1=O (centres undefined)
–,5.58,CC(OC(=O)c1c2c(nc3ccccc13)CCCCC2)C(=O)Nc1ccc2ccccc2c1 (centres undefined)
> 50 µM (inactive),–,Cc1nc(C(=O)N[C@@H](C)C(=O)NCc2ccc3c(c2)OCO3)cc2c1[nH]c1ccccc12
> 50 µM (inactive),–,O=C(CC1C(=O)N(Cc2cccnc2)c2nc3ccccc3n21)Nc1cccc2ccccc12 (centres undefined)

IC50,pIC50,Compound
> 50 µM (inactive),–,NS(=O)(=O)c1ccc(NC(=O)Cn2cnc3cc([N+](=O)[O-])ccc3c2=O)cc1
> 50 µM (inactive),–,COCC(C)Nc1ncc(-c2cnccn2)c(-c2ccc(C)s2)n1 (centres undefined)
> 50 µM (inactive),–,Cc1nn(-c2ccc(Cl)cc2)c2[nH]c(=O)c(CNCC3CCCO3)cc12 (centres undefined)
> 50 µM (inactive),–,Cc1ccc2c(c1)N=C(c1ccc([N+](=O)[O-])cc1)CO2
–,4.65,O=C(Nc1ccc(F)cc1F)c1csc(-c2ccccc2)n1
–,5.66,Cn1c(=O)sc2cc(NC(=O)c3ccc(Br)cc3)ccc21
–,5.02,Cc1nc2ccc(NC(=O)COc3ccccc3[N+](=O)[O-])cc2s1
> 50 µM (inactive),–,Cc1nc(-c2cccc(NC(=O)c3ccccc3Cl)c2)no1
–,4.44,COc1ccc(NC(=O)C2c3ccccc3C(=O)N(C3CCCC3)C2c2cccs2)cc1OC (centres undefined)
> 50 µM (inactive),–,O=C(Cn1cnc(-c2noc(-c3ccncc3)n2)c1)N1CCN(c2ccccc2F)CC1
–,5.56,CC(=O)c1ccc(NC(=O)CSc2nc(-c3ccccc3)nc3c2COC(C)(C)C3)cc1
> 50 µM (inactive),–,COc1ccc(-c2nc(SCC(=O)Nc3ccc(Cl)cc3F)n[nH]2)cc1
> 50 µM (inactive),–,Cc1ccc(NC(=O)c2nnn(-c3ccccc3)n2)cc1F
> 50 µM (inactive),–,O=S(=O)(O)c1cc2cc3ccccc3cc2[nH]1
–,4.68,O=c1c(S(=O)(=O)c2cc(F)cc(F)c2)c[nH]c2cc(Cl)ccc12
> 50 µM (inactive),–,O=C(COC(=O)c1cc(Cl)c2c(c1)OCO2)Nc1ccc2[nH]c(=O)[nH]c2c1
–,4.39,COc1cccc(NC(=O)C2C3C=CC4(O3)C2C(=O)N(CCc2ccccc2Cl)C4C(=O)NC2CCCCC2)c1 (centres undefined)
> 50 µM (inactive),–,CN(C)Cc1ccc(C(=O)Nc2ccc(-c3nccs3)cc2)cc1
–,5.64,COc1cc(OC)c(NC(=O)Cn2c(=O)n(Cc3ccccc3Cl)c(=O)c3cc(OC)c(OC)cc32)cc1Cl
–,4.67,O=C(NCc1ccc(F)cc1)c1cc(-n2cnnn2)ccc1Cl
–,4.68,Cc1cnnn1-c1ccc(C(=O)Nc2cc(Cl)ccc2Cl)cc1
–,5.87,COc1cc(Cl)c(C)cc1NC(=O)Cn1c(=O)n(CC(=O)NCc2ccco2)c(=O)c2ccccc21
> 50 µM (inactive),–,Cc1ccc(C(=O)Nc2cc3c4c(c2)CC(=O)N4CCC3)cc1C
> 50 µM (inactive),–,Fc1ccccc1Cc1nc(-c2ccc3nncn3c2)no1
–,5.91,Cc1cccc(NC(=O)Cn2cnc(-c3noc(-c4ccccc4)n3)c2)c1C

IC50,pIC50,Compound
–,4.64,Cc1ccnc(NC(=O)c2ccn(COc3ccc(Cl)cc3)n2)c1
> 50 µM (inactive),–,COC1=CC(=O)c2c(O)c(C)c(CC(C)=O)c(O)c2C1=O
> 50 µM (inactive),–,COc1ccc(NC(=O)CN2C(=O)c3ccccc3Sc3ccc(C(=O)N4CCCC4)cc32)c(OC)c1
> 50 µM (inactive),–,O=C(NC(Cc1ccccc1)c1nc2ccccc2[nH]1)C1CC1 (centres undefined)
> 50 µM (inactive),–,O=C(Nc1nc2c(s1)COCC2)c1cc(-c2ccco2)[nH]n1
> 50 µM (inactive),–,CC(=O)N1Cc2ccccc2CC2(CCCN(CC3CCOCC3)C2)C1 (centres undefined)
> 50 µM (inactive),–,O=C(NCCCN1CCc2ccccc2C1)c1cc2c(s1)CS(=O)(=O)C2
> 50 µM (inactive),–,COc1ccc(NC2c3ccccc3C(=O)N2c2ccccn2)cc1 (centres undefined)
–,5.66,O=C(Nc1nc2ccccc2s1)c1ccc2c(c1)C(=O)N(Cc1cccnc1)C2=O
> 50 µM (inactive),–,N#Cc1ccccc1Cn1c(=O)n(Cc2ccco2)c(=O)c2ccccc21
> 50 µM (inactive),–,Oc1ccc(-c2nc3cnccn3c2NCCc2ccccc2)c(O)c1
> 50 µM (inactive),–,Nc1c(-c2ccc(Cl)cc2)cnc2nc(Sc3ncc(C(F)(F)F)cc3Cl)nn12
–,5.64,c1ccc(-c2nc(-c3nnn(-c4ccccc4)c3-c3ccncc3)no2)cc1
> 50 µM (inactive),–,O=C(NCc1ccc(F)cc1)C1CCN(c2cnc(N3CCCCC3)nc2)CC1
–,4.54,COc1ccc(NC(=O)c2ccccc2OCC(=O)Nc2ccccc2C(F)(F)F)c(C)c1
–,4.35,Cc1c(C)n(-c2ccccc2)c2ncn(CC(=O)NCCCc3ccccc3)c(=O)c12
> 50 µM (inactive),–,N#Cc1cc2c(nc1SCC(=O)NCc1ccccc1)CCCC2
–,4.49,Cc1cccc(C(=O)Nc2ccccc2Sc2nc3c(c(=O)n(C)c(=O)n3C)n2C)c1
–,4.50,CC(OC(=O)c1ccc2c(c1)OCCO2)C(=O)NCC1CCCCC1 (centres undefined)
> 50 µM (inactive),–,CCCCC/C=C/C=C/C(=O)OC1C(O)CC(c2ccc3c(c2O)C(=O)c2c(O)cc4cc(C)cc(O)c4c2C3=O)OC1C (centres undefined)
> 50 µM (inactive),–,CCN(C(=O)c1cc2c(s1)-c1ccccc1OC2)c1ccccc1F
–,4.64,CCOc1ccccc1C(=O)Oc1ccc2c(C)cc(=O)oc2c1
–,4.54,CCC(C)(C)C1CCC2(CC1)N=C(N)Nc1nc3ccccc3n12 (centres undefined)
> 50 µM (inactive),–,O=C1CC(c2ccco2)Cc2[nH]c(=O)c(-c3nc(-c4ccc(Cl)cc4)cs3)cc21 (centres undefined)
–,4.59,O=C(Nc1ccc(F)cc1F)NC1CCN(c2ccccc2)C1=O (centres undefined)

IC50,pIC50,Compound
–,4.47,Cc1nc(Nc2ncc(C)s2)cc(C2CN(C(=O)Cc3ccccc3)CCO2)n1 (centres undefined)
–,5.09,Cc1sc(-c2ccc(Cl)nc2)nc1OC(=O)c1ccc(F)cc1F
–,4.39,Cc1nc2ccccc2nc1SCC(=O)Nc1ccc2c(c1)OCO2
–,5.45,O=C(NCc1ccc2c(c1)OCO2)c1cc2c(s1)-c1ccccc1OC2
> 50 µM (inactive),–,CC(C)(C)c1cc(CCC(=O)Nc2c3c(nc4c2CCC4)CCCC3)cc(C(C)(C)C)c1O
–,4.66,O=C(CNC(=O)c1cccc(F)c1)Nc1nc2ccccc2[nH]1
–,4.45,O=C(Nc1ccc2sccc2c1)c1ccc(F)cc1
–,4.67,Cc1ccc(-n2nnc(C(=O)NC3CCCCC3)c2N)cc1
> 50 µM (inactive),–,c1ccc(CN2CCN(c3nc4ccccc4n4nnnc34)CC2)cc1
–,4.47,O=C(Nc1cccc2ccccc12)N1CCC(c2nc3c(nnn3Cc3ccc(F)cc3)c(=O)[nH]2)CC1
–,5.05,Cc1ccc2[nH]c(=O)c(CN(CC3COCCO3)S(=O)(=O)c3ccc(F)cc3)cc2c1 (centres undefined)
–,4.67,CCC1=C(c2ccc(C)cc2)S(=O)(=O)NC1=NCC(=O)NC(C)c1ccccc1 (centres undefined)
–,4.33,Cc1cc(C)nc(SCCn2c(N3CCC(Cc4ccccc4)CC3)nc3c2c(=O)n(C)c(=O)n3C)n1
> 50 µM (inactive),–,CC(C)CC1NC(=O)C2CCCN2C1=O (centres undefined)
–,5.68,Cc1sc2ncn3c(=O)n(CC(=O)Nc4ccc(F)c(Cl)c4)nc3c2c1C
–,4.63,Cn1nc(-c2ccccc2)c(COC(=O)c2ccc([N+](=O)[O-])cc2)c1Cl
> 50 µM (inactive),–,CN(C)S(=O)(=O)N1CCCC2(C1)Nc1cccnc1NC2=NC1CCCC1 (centres undefined)
> 50 µM (inactive),–,COc1ccc(NC(=O)C2[C@@H]3C(=O)N(C4CCCCC4)C(=O)[C@@H]3[C@H]3c4ccccc4C=CN23)cc1 (some centres undefined)
–,5.76,CCCCNc1nc2c(-c3ccccc3)nnn2c2ccccc12
> 50 µM (inactive),–,CC1CC(=O)c2c(cc3c(-c4c(O)cc(O)c5c(O)c6c(cc45)OC(C)CC6=O)c(O)cc(O)c3c2O)O1 (centres undefined)
> 50 µM (inactive),–,CCc1nc(-c2cc(C(=O)N3CCOCC3)c3ccccn23)cs1
> 50 µM (inactive),–,CCN(Cc1ccccc1)S(=O)(=O)c1ccc(C(=O)Nc2ccc3c(c2)OCCO3)cc1
> 50 µM (inactive),–,CCn1cc(NC(=O)CN2CCC3(CC=CCOC3)CC2)c(C)n1
> 50 µM (inactive),–,Cc1cc(C(=O)N2CCOCC2)c(C)n1-c1ccc(O)cc1
